Read-outs that look alike come from different tables or passages of the source.
What was measured:
A2780 cells = assay: Deoxy-glucose uptake assay in A2780 cells (14C 2-deoxy-D-glucose transport); format: cell-based; settings: Homo sapiens, 20 min; inhibition of 14C 2-deoxy-D-glucose transport into A2780 cells; 20 min compound incubation; read-out: IC50
How it was run: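 Radiolabelled 2-deoxy-D-glucose transport over 20 min was scintillation-counted in A2780 cells, grown 48 h, after 20 min compound exposure in KRB. Untreated cells gave the 100% reference, with Cytochalasin B defining background. IC50 values were regressed from triplicate means across 7 or 14 concentrations.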

[1] = test system: A2780 Human Carcinoma Cells; assay: Glucose displacement assay (ATP measurement, CellTiter-Glo); format: cell-based; settings: ATP measurement in A2780 cells, 0.5 μM rotenone
Protocol: 2. Glucose Displacement Assay (ATP Measurement)
30,000 A2780 Human Carcinoma Cells are seeded per well in a Greiner 96-well plate. Cells are expanded and cultured in RPMI 1640 medium+GlutaMAX® with 10% FCS and 11 mM glucose, at 37° C. with 5% CO2. After 44 h, culture media is changed and washed once with PBS to starvation media consisting of RPMI 1640 medium with 1% FCS without glucose for 2 hours. Cells are then washed with KRB buffer, followed by incubation for 20 min at 37° C. of the treatment mix consisting of 60 μL KRB buffer/well and 10 μL of compound or DMSO 10×. 10 μl of rotenone is added to the mix to a final concentration of 0.5 μM. Cell plates are left for 2 min at room temperature. 20 μL of different glucose concentrations are added to the mix—typically 0.1 to 10 mM range—.
Cells are incubated for another 15 min at 37° C., before measuring ATP with the CellTiter-Glo® Assay, under manufacturer's guidance, but without the equilibration step at room temperature for 30 min. In brief, 100 μl of Cell-Titer-Glo® Reagent is added to the wells containing already 100 μl of the previous reaction mix. Plates are mixed for 2 min at 800 rpm, followed by incubation at room temperature for 10 min to stabilize the luminescent signal. Luminescence is then recorded with the Tekan Ultra Evolution reader.

[2] = 1 mM glucose, read-out: IC50 [μM] at 1 mM glucose
[3] = 10 mM glucose, read-out: IC50 [μM] at 10 mM glucose

| SMILES | IC50 (A2780 cells) [µM] | IC50 [1, 2] [µM] | IC50 [1, 3] [µM] |
| --- | --- | --- | --- |
| CO[C@H]1O[C@H](CO)[C@@H](O)[C@H](O)[C@H]1OC(=O)c1cc(Cl)c(OCc2cccc(CNC(=O)CCCC(=O)OC(C)(C)C)c2)c(Cl)c1C [Example 349] | 2.5 | 1.46 | 7.76 |
| CO[C@H]1O[C@H](CO)[C@@H](O)[C@H](O)[C@H]1OC(=O)c1cc(Cl)c(OCc2cccc(NC(=O)CCCC(=O)OC(C)(C)C)c2)c(Cl)c1C [Example 351] | 0.8 | 0.55 | 1.97 |
| COC(=O)/C=C/c1ccc(COc2cc(OC)c(C(=O)O[C@H]3[C@@H](OC)O[C@H](CO)[C@@H](O)[C@@H]3O)cc2Cl)cc1 [Example 352] | 0.04 | 0.26 | 1.05 |
| COc1cc(OCc2cn3c(C)cccc3n2)c(Cl)cc1C(=O)O[C@H]1[C@@H](OC)O[C@H](CO)[C@@H](O)[C@@H]1O [Example 353] | 0.1 | 1.5 | 6.07 |
| COC(=O)CCc1ccc(COc2cc(OC)c(C(=O)N[C@H]3[C@@H](OC)O[C@H](CO)[C@@H](O)[C@@H]3O)cc2Cl)cc1 [Example 356] | 2.7 | 3.68 | 12.1 |
| COc1cc(OCc2cccc(CNC(=O)OC(C)(C)C)c2)c(Cl)cc1C(=O)O[C@H]1[C@@H](OC)O[C@H](CO)[C@@H](O)[C@@H]1O [Example 361] | 0.8 | 1.93 | 8.11 |
| COc1cc(OCc2cccc(NC(=O)CCCC(=O)OC(C)(C)C)c2)c(Cl)cc1C(=O)O[C@@H]1[C@@H](O)[C@@H](OC)O[C@H](CO)[C@H]1O [Example 364] | 4.4 | 3.88 | 12.3 |
| C#CCCCCCCCn1c(COc2c(Cl)cc(C(=O)O[C@H]3[C@@H](OC)O[C@H](CO)[C@@H](O)[C@@H]3O)c(C)c2Cl)nc2ccccc21 [Example 371] | 0.4 | 0.86 | 1.44 |
| COc1cc(OCc2cccc(CNC(=O)CCC(=O)OC(C)(C)C)c2)c(Cl)cc1C(=O)O[C@H]1[C@@H](OC)O[C@H](CO)[C@@H](O)[C@@H]1O [Example 372] | 2.4 | 2.89 | 15 |
| COc1cc(OCc2cccc(CNC(=O)CCCC(=O)OC(C)(C)C)c2)c(Cl)cc1C(=O)O[C@H]1[C@@H](OC)O[C@H](CO)[C@@H](O)[C@@H]1O [Example 373] | 4.1 | 6.44 | 26.7 |
| COc1cc(OCc2cccc(NC(=O)CCC(=O)OC(C)(C)C)c2)c(Cl)cc1C(=O)O[C@H]1[C@@H](OC)O[C@H](CO)[C@@H](O)[C@@H]1O [Example 375] | 1.6 | 1.41 | 7.19 |
| COc1cc(OCc2cccc(NC(=O)CCCC(=O)OC(C)(C)C)c2)c(Cl)cc1C(=O)O[C@H]1[C@@H](OC)O[C@H](CO)[C@@H](O)[C@@H]1O [Example 376] | 0.8 | 1.02 | 3.73 |
| COC(=O)[C@H](CCC(=O)Nc1cccc(COc2cc(OC)c(C(=O)O[C@H]3[C@@H](OC)O[C@H](CO)[C@@H](O)[C@@H]3O)cc2Cl)c1)NC(=O)OC(C)(C)C [Example 377] | 2.4 | 1.34 | 7.83 |
| COc1cc(OCc2cccc(OCCCCCC(=O)O)c2)c(Cl)cc1C(=O)O[C@H]1[C@@H](OC)O[C@H](CO)[C@@H](O)[C@@H]1O [Example 379] | 8.3 | 5.39 | 24.1 |
| COc1cc(OCc2cccc(CNC(=O)CCCCCCC(=O)OC(C)(C)C)c2)c(Cl)cc1C(=O)O[C@H]1[C@@H](OC)O[C@H](CO)[C@@H](O)[C@@H]1O [Example 401] | 0.6 | 2.95 | 7.81 |
| COc1cc(OCc2cccc(NC(=O)CCCCCCC(=O)OC(C)(C)C)c2)c(Cl)cc1C(=O)O[C@H]1[C@@H](OC)O[C@H](CO)[C@@H](O)[C@@H]1O [Example 402] | 0.3 | 3.24 | 7.35 |
| COc1cc(OCc2cccc(NC(=O)CCCC(=O)O)c2)c(Cl)cc1C(=O)O[C@H]1[C@@H](OC)O[C@H](CO)[C@@H](O)[C@@H]1O [Example 407] | 8.6 | 16.3 | > 33 |
| COc1cc(OCc2cccc(NC(=O)CCCCCCC(=O)O)c2)c(Cl)cc1C(=O)O[C@H]1[C@@H](OC)O[C@H](CO)[C@@H](O)[C@@H]1O [Example 409] | 4.1 | 7.63 | 14.5 |

| SMILES | IC50 (A2780 cells) [µM] | IC50 [1, 2] [µM] | IC50 [1, 3] [µM] |
| --- | --- | --- | --- |
| COC(=O)[C@H](CCCCNC(=O)CCCC(=O)Nc1cccc(COc2cc(OC)c(C(=O)O[C@H]3[C@@H](OC)O[C@H](CO)[C@@H](O)[C@@H]3O)cc2Cl)c1)NC(=O)OC(C)(C)C [Example 412] | 2.3 | 6.02 | 13.9 |
| COC(=O)[C@H](CCCCNC(=O)CCCCCCC(=O)NCc1cccc(COc2cc(OC)c(C(=O)O[C@H]3[C@@H](OC)O[C@H](CO)[C@@H](O)[C@@H]3O)cc2Cl)c1)NC(=O)OC(C)(C)C [Example 413] | 5.1 | 10.3 | 30.9 |
| COc1cc(OCc2cccc(CNC(=O)OC(C)(C)C)c2)c(Cl)cc1C(=O)N[C@H]1[C@H](OC)O[C@H](CO)[C@@H](O)[C@@H]1O [Example 419] | 1.1 | 4.39 | 11.6 |
| COc1cc(OCc2cccc(CNC(=O)CCC(=O)OC(C)(C)C)c2)c(Cl)cc1C(=O)N[C@H]1[C@@H](OC)O[C@H](CO)[C@@H](O)[C@@H]1O [Example 424] | 3.3 | 9.79 | 25.4 |
| COc1cc(OCc2cccc(CNC(=O)CCCC(=O)OC(C)(C)C)c2)c(Cl)cc1C(=O)N[C@H]1[C@@H](OC)O[C@H](CO)[C@@H](O)[C@@H]1O [Example 425] | 2.5 | 7.97 | 14.5 |
| COc1cc(OCc2cccc(CNC(=O)CCCCCCC(=O)OC(C)(C)C)c2)c(Cl)cc1C(=O)N[C@H]1[C@@H](OC)O[C@H](CO)[C@@H](O)[C@@H]1O [Example 426] | 2.8 | 5.56 | 19.5 |
| COc1cc(OCc2cccc(NC(=O)CCCCCCC(=O)OC(C)(C)C)c2)c(Cl)cc1C(=O)N[C@H]1[C@@H](OC)O[C@H](CO)[C@@H](O)[C@@H]1O [Example 430] | 1.7 | 3.9 | 7.8 |
| COC(=O)[C@H](CCCCNC(=O)CCCCCCC(=O)NCc1cccc(COc2cc(OC)c(C(=O)N[C@H]3[C@@H](OC)O[C@H](CO)[C@@H](O)[C@@H]3O)cc2Cl)c1)NC(=O)OC(C)(C)C [Example 437] | 17.6 | 19.5 | > 33 |
| COC(=O)[C@H](CCCCNC(=O)CCCCCCCCC(=O)NCc1cccc(COc2cc(OC)c(C(=O)N[C@H]3[C@@H](OC)O[C@H](CO)[C@@H](O)[C@@H]3O)cc2Cl)c1)NC(=O)OC(C)(C)C [Example 438] | 13.8 | 13 | > 33 |
| CO[C@H]1O[C@H](CO)[C@@H](O)[C@H](O)[C@H]1NC(=O)c1cc(Cl)c(OCc2cccc(CNC(=O)OC(C)(C)C)c2)c(Cl)c1C [Example 439] | 3.3 | 2.5 | 11.5 |
| COC(=O)[C@H](CCCCNC(=O)CCCC(=O)Nc1cccc(COc2cc(OC)c(C(=O)N[C@H]3[C@@H](OC)O[C@H](CO)[C@@H](O)[C@@H]3O)cc2Cl)c1)NC(=O)OC(C)(C)C [Example 440] | 7 | 18 | > 33 |
| COC(=O)[C@H](CCCCNC(=O)CCCCCCC(=O)Nc1cccc(COc2cc(OC)c(C(=O)N[C@H]3[C@@H](OC)O[C@H](CO)[C@@H](O)[C@@H]3O)cc2Cl)c1)NC(=O)OC(C)(C)C [Example 441] | 2.7 | 3 | 11.4 |
| COC(=O)[C@H](CCCCNC(=O)CCCCCCCCC(=O)Nc1cccc(COc2cc(OC)c(C(=O)N[C@H]3[C@@H](OC)O[C@H](CO)[C@@H](O)[C@@H]3O)cc2Cl)c1)NC(=O)OC(C)(C)C [Example 442] | 1 | 1.6 | 5.2 |
| CO[C@H]1O[C@H](CO)[C@@H](O)[C@H](O)[C@H]1NC(=O)c1cc(Cl)c(OCc2cccc(NC(=O)OC(C)(C)C)c2)c(Cl)c1C [Example 443] | 6 | 2 | 8.9 |
| COc1c(C(=O)N[C@H]2[C@@H](OC)O[C@H](CO)[C@@H](O)[C@@H]2O)cc(Cl)c(OCc2cccc(CNC(=O)OC(C)(C)C)c2)c1Cl [Example 444] | 1.6 | 4 | 8.4 |
| COc1cc(OCc2nc3ccccc3n2CCCCCCCCCCCC(=O)O)c(Cl)cc1C(=O)N[C@H]1[C@@H](OC)O[C@H](CO)[C@@H](O)[C@@H]1O [Example 469] | 1.7 | 2.4 | 3.3 |
| COC(=O)[C@H](CCCCNC(=O)CCCCCNC(=O)CCCCCCC(=O)Nc1cccc(COc2cc(OC)c(C(=O)N[C@H]3[C@@H](OC)O[C@H](CO)[C@@H](O)[C@@H]3O)cc2Cl)c1)NC(=O)OC(C)(C)C [Example 471] | 0.8 | 3.4 | 8.6 |
